Data reported in US6903132B2, “Non-peptide GnRH agents, pharmaceutical compositions and methods for their use” (Agouron Pharmaceuticals, Inc., priority 2002, dated 2005).
Where “and” joins values, the source holds several entries; their conditions need not be identical. Equal entries are not always repeated.

Key:
[1] = Pharmacokinetics in female rats; type: in vivo, rat; details: for FR Fp.o.: 20 mg/kg as 10 mg/ml solution in 10% DMSO 10% cremophor 80% saline, AUCp.o./AUCi.v.; for Tmax: rat, plasma, po, dose and vehicle per footnote, read-out: FR Tmax hr
Protocol: Rats (male or female, 200-225 g) are prepared with indwelling jugular vein cannula as described by Harms et al., Applied Physiol. 36:391-398 (1974), and allowed to recover overnight with free access to the standard vivarium chow and water. […] […] The blood samples are withdrawn at specific times, plasma is immediately separated and compound extracted with ethyl acetate. The samples are analyzed by LC-MS using 30-90% gradient of ACN in 50 mM ammonium acetate.
The pharmacokinetic parameters are calculated using WinNonlin software (Scientific Consulting Inc.). The bioavailability is calculated as AUCp.o./AUCi.v., where AUCp.o. and AUCi.v. are areas under the plasma concentration-time curve after oral and i.v. administration, respectively.

[2] = In vitro metabolism: disappearance of parent compound in liver microsomes; type: in vitro ADME; details: human liver microsomes; 5 uM compound, 0.5 mg/ml microsomal protein, 2 mM NADPH, 30 minutes at 37° C.
Protocol: (§1) Human, rat, dog, and monkey liver microsomes are isolated by differential centrifugation. Specimens of human liver were obtained from the International Institute for the Advancement of Medicine (Scranton, Pa.). The disappearance of the parent compound is studied in a mixture containing 5 uM compound, 0.5 mg/ml microsomal protein, and 2 mM NADPH in 50 mM K Phosphate buffer, pH 7.4. Samples are incubated for 30 minutes at 37° C. The reaction is terminated by the addition of acetonitrile and compounds analyzed by LC-MS as described above.

rat GnRH receptor = target: T1, rat GnRH receptor (Rattus norvegicus, UniProt P30969); assay: Radioligand binding assay: inhibition of binding of 125I-GnRH-A to GnRH receptors (membranes); details: competition with 125I-GnRH-A, Ki calculated from IC50 (Cheng et al.)
T1 construct: rat pituitaries (Pel Freez Biologicals, Rogers, Ark.) are homogenized in buffer A; tissue Pel Freez Biologicals; host or cells: rat pituitaries
T1 sequence (P30969 1-327): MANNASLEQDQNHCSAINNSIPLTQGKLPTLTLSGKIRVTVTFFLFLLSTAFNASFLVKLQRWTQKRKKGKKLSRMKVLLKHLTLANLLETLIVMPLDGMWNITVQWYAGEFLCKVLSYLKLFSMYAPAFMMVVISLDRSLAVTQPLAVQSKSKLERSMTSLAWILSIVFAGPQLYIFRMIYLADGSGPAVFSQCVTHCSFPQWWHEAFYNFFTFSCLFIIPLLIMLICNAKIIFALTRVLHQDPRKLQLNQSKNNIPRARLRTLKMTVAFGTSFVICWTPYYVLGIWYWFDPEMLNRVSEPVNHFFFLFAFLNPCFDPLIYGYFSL
Outline: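 Membranes from HEK 293 expressing mouse or human receptor, or rat pituitaries, incubated 1 h at RT with ~0.04–0.06 nM ¹²⁵I-[des-Gly¹⁰,D-Ala⁶]GnRH ethylamide and competitor (0.1–10,000 nM) in HEPES pH 7.4 with MgCl2, EDTA, BSA. Filtration onto PEI-soaked GF/C filters, scintillation counting; Ki from IC50 by Cheng–Prusoff.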

[3] = In vitro metabolism: disappearance of parent compound in liver microsomes (male rat); type: in vitro ADME; details: 5 uM compound, 0.5 mg/ml microsomal protein, 2 mM NADPH, 30 minutes at 37° C.
Protocol: as §1

FR Fp.o. [1]	Tmax [1]	Huma % p. 30′ [2]	Ki (rat GnRH receptor)	Male t % p. 30′ [3]	SMILES
19%^1	1 h	63% and 54% and 37% and 38%	6.5 nM	99%	Cc1cc2c(cc1Cc1ccc(C(=O)NNc3cc(C)c4c(C)nn(C)c4n3)o1)C(C)(C)CCC2(C)C [Example C1, 5-[(3,5,5,8,8-Pentamethyl-5,6,7,8-tetrahydro-2-naphthalenyl)methyl]-N′-(1,3,4-trimethyl-1H-pyrazolo[3,4-b]pyridin-6yl)-2-furohydrazide]
15%^1	2 h	40%	32 nM	97%	COc1cc2c(cc1Cc1ccc(C(=O)NNc3cc(C)c4c(C)nn(C)c4n3)o1)C(C)(C)CCC2(C)C [Example C2, 5-[(3-Methoxy-5,5,8,8-tetramethyl-5,6,7,8-tetrahydro-2-naphthalenyl)methyl]-N′-(1,3,4-trimethyl-1H-pyrazolo[3,4-b]pyridin-6-yl)-2-furohydrazide]
